Patent publication US9669005B2, “Use of naringenin in preparing drugs for preventing and/or treatment abdominal aortic aneurysm” (priority 2013, dated 2017)

System: IL-6 and MCP-1
Experiment: Immunohistochemical staining of IL-6 and MCP-1 on vascular walls, CaPO4 model
Type: in vivo
Conditions: CaPO4 daubed mice; immunohistochemistry; FIG. 3B
From the text: IL-6 and MCP-1 are proinflammatory chemotactic factors and cytokines, and they are mainly from vascular walls. MCP-1 can release more matrix metalloproteinase to degrade matrix by recruiting leukocytes, which mediats vascular remodeling and expanding (MacTaggart J N et al. Deletion of ccr2 but not ccr5 or cxcr3 inhibits aortic aneurysm formation Surgery. 2007; 142:284-288; Ishibashi M et al. Bone marrow-derived monocyte chemoattractant protein-1 receptor ccr2 is critical in angiotensin ii-induced acceleration of atherosclerosis and aneurysm formation in hypercholesterolemic mice. Arterioscl throm vasc biol. 2004; 24: e174-178), while IL-6 can enlarge effect of MCP-1 to aggravate the onset of abdominal aortic aneurysms (Tieu B C et al. An adventitial il-6/mcpl amplification loop accelerates macrophage-mediated vascular inflammation leading to aortic dissection in mice. J Clin Invest. 2009; 119:3637-3651). We used histochemical staining to identify the expressions of IL-6 and MCP-1 on vascular walls. IL-6 and MCP-1 were immunohistochemical results of anti-IL-6 and anti-MCP-1 specific antibodies (purchased from Abcam, Cambridge Company, UK), respectively.

O=C1C[C@@H](c2ccc(O)cc2)Oc2cc(O)cc(O)c21 [naringenin]
expression of IL-6 and MCP-1 in adventitia in vascular walls: reduce their expressions
